According to ChEMBL document CHEMBL5532665 (J Med Chem, 2024):
Activity calls are given as the source filed them. The calls are words filed in the database; no cut-off is given here.

Tests used:
Mu-type opioid receptor = Mu-type opioid receptor (Homo sapiens, UniProt P35372); test: Agonist activity at human MOR expressed in CHO-K1 cells co-expressing G-alpha15 by calcium mobilization assay relative to control; format: functional, cell-based; settings: filed as agonist
[1] = target: T1, Kappa-type opioid receptor (Homo sapiens, UniProt P41145); test: Agonist activity at human KOR expressed in CHO-K1 cells co-expressing G-alpha15 by calcium mobilization assay relative to control; format: functional, cell-based; settings: filed as agonist
[2] = target: Delta-type opioid receptor (Homo sapiens, UniProt P41143); test: Agonist activity at human DOR expressed in CHO-K1 cells co-expressing G-alpha15 by calcium mobilization assay relative to control; format: functional, cell-based; settings: filed as agonist
Mus musculus [3] = test: Antinociceptive activity in Kunming mouse model at 1.4 nmol/kg, sc in presence of beta-FNA by tail-flick test; format: functional, organism-based
Mus musculus [4] = test: Antinociceptive activity in Kunming mouse model at 1.4 nmol/kg, sc in presence of nor-BNI by tail-flick test; format: functional, organism-based
Mus musculus [5] = test: Antinociceptive activity in Kunming mouse model at 1.4 nmol/kg, sc in presence of NTI by tail-flick test; format: functional, organism-based
Mus musculus [6] = test: Antinociceptive activity in Kunming mouse model at 1.4 nmol/kg, sc pretreated with NALM subcutaneously followed by compound administration by tail-flick test; format: functional, organism-based
Mus musculus [7] = test: Antinociceptive activity in Kunming mouse model at 1.4 nmol/kg, sc pretreated with NALM intracerebroventricularly followed by compound administration by tail-flick test; format: functional, organism-based
Mus musculus [8] = test: Antinociceptive activity in Kunming mouse model assessed as increase in analgesic effect at 0.014 to 1.4 nmol/kg, sc measured for 180 to 360 mins by tail-flick test; format: functional, organism-based; settings: dose 0.014-1.4 nmol/kg, time 180-360 min
Mus musculus [9] = test: Antinociception activity in Kunming mouse model assessed as analgesic effect at 1.4 nmol/kg, sc administered daily measured for 8 days by tail-flick test; format: functional, organism-based; settings: time 8.0 day
Mus musculus [10] = test: Antinociception activity in Kunming mouse model assessed as analgesic effect at 1.4 nmol/kg, sc administered daily measured for 8 days in presence of NTI by tail-flick test; format: functional, organism-based; settings: time 8.0 day
Mus musculus [11] = test: Rewarding affect in Kunming mouse model at 13.8 nmol/kg, sc pre-exposed to place conditioning for 3 days followed by compound administration and further re-exposed to place conditioning measured on day 5 by unbiased CPP method; format: functional, organism-based; settings: time 2.0 day
Mus musculus [12] = test: Induction of physical dependence in Kunming mouse model assessed as jumping behavior at 0.2 to 10 nmol/kg, sc administered as 7 escalating doses with 8 hr-intervals in-between followed by Nal administration post-2 hrs of last compound dose and further measured for 30 mins by withdrawal assay; format: functional, organism-based; settings: dose 0.2-10 nmol/kg, time 50.5 hrs
[13] = target: T1, Kappa-type opioid receptor; test: Agonist activity at human KOR expressed in CHO-K1 cells co-expressing G-alpha15 upto 100 uM by calcium mobilization assay; format: functional, cell-based
Mus musculus [14] = test: Antinociceptive activity in Kunming mouse model at 132.2 nmol/kg, sc in presence of beta-FNA by tail-flick test; format: functional, organism-based
Mus musculus [15] = test: Antinociceptive activity in Kunming mouse model at 132.2 nmol/kg, sc in presence of nor-BNI by tail-flick test; format: functional, organism-based
Mus musculus [16] = test: Antinociceptive activity in Kunming mouse model at 132.2 nmol/kg, sc in presence of NTI by tail-flick test; format: functional, organism-based
Mus musculus [17] = test: Antinociceptive activity in Kunming mouse model at 132.2 nmol/kg, sc pretreated with NALM subcutaneously followed by compound administration by tail-flick test; format: functional, organism-based
Mus musculus [18] = test: Antinociceptive activity in Kunming mouse model at 132.2 nmol/kg, sc pretreated with NALM intracerebroventricularly followed by compound administration by tail-flick test; format: functional, organism-based
Mus musculus [19] = test: Antinociceptive activity in Kunming mouse model assessed as latency of tail withdrawal at 13.9 nmol/kg, sc measured for 10 mins by tail-flick test relative to control; format: functional
Mus musculus [20] = test: Antinociceptive activity in Kunming mouse model assessed as latency of tail withdrawal at 13.9 nmol/kg, sc measured for 30 mins by tail-flick test relative to control; format: functional; settings: 0.5 h
Mus musculus [21] = test: Antinociceptive activity in Kunming mouse model assessed as latency of tail withdrawal at 13.9 nmol/kg, sc measured for 60 mins by tail-flick test relative to control; format: functional; settings: 1 h
Mus musculus [22] = test: Antinociceptive activity in Kunming mouse model assessed as latency of tail withdrawal at 13.9 nmol/kg, sc measured for 120 mins by tail-flick test relative to control; format: functional; settings: 2 h
Mus musculus [23] = test: Antinociceptive activity in Kunming mouse model administered subcutaneously by tail-flick test; format: functional; settings: route sc
Mus musculus [24] = test: Antinociceptive activity in Kunming mouse model administered orally by tail-flick test; format: functional; settings: route po
Mus musculus [25] = test: Antinociceptive activity in Kunming mouse model administered subcutaneously measured for 5 to 15 mins by acetic acid-induced writhing test; format: functional; settings: route sc, time 5-15 min
Mus musculus [26] = test: Inhibition of gastrointestinal motility in fasted Kunming mouse model treated subcutaneously for 15 mins followed by charcoal-gum arabic treatment measured after 30 mins; format: functional; settings: 0.75 h, route sc, time 45 min
Mus musculus [27] = test: Antinociceptive activity in Kunming mouse model at 136.2 nmol/kg, sc in presence of beta-FNA by tail-flick test; format: functional, organism-based
Mus musculus [28] = test: Antinociceptive activity in Kunming mouse model at 136.2 nmol/kg, sc in presence of nor-BNI by tail-flick test; format: functional, organism-based
Mus musculus [29] = test: Antinociceptive activity in Kunming mouse model at 136.2 nmol/kg, sc in presence of NTI by tail-flick test; format: functional, organism-based
Mus musculus [30] = test: Antinociceptive activity in Kunming mouse model at 136.2 nmol/kg, sc pretreated with NALM subcutaneously followed by compound administration by tail-flick test; format: functional, organism-based
Mus musculus [31] = test: Antinociceptive activity in Kunming mouse model at 136.2 nmol/kg, sc pretreated with NALM intracerebroventricularly followed by compound administration by tail-flick test; format: functional, organism-based

Chain of Mu-type opioid receptor (P35372 whole entry): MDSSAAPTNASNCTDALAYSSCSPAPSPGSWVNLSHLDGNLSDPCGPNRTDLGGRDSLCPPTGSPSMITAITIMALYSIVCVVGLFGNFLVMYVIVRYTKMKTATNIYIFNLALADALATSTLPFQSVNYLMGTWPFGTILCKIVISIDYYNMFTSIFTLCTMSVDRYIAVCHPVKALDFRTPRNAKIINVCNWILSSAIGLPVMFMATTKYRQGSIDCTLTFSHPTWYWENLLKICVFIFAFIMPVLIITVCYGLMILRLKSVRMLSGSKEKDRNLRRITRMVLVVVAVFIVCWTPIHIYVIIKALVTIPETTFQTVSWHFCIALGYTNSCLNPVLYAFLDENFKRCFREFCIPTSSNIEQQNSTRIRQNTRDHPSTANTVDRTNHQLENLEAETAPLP
T1 sequence (P41145 whole entry): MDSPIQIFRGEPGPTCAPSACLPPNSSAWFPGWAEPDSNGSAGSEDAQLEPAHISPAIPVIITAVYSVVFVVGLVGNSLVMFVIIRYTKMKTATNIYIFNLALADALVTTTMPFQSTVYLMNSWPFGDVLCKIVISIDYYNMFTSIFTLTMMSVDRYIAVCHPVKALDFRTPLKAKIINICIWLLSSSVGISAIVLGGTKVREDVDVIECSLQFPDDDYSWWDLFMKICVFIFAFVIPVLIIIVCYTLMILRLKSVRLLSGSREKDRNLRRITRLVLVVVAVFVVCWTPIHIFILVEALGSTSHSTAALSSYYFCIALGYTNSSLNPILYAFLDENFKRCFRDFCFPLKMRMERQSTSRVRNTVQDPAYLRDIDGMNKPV
Chain of Delta-type opioid receptor (P41143 whole entry): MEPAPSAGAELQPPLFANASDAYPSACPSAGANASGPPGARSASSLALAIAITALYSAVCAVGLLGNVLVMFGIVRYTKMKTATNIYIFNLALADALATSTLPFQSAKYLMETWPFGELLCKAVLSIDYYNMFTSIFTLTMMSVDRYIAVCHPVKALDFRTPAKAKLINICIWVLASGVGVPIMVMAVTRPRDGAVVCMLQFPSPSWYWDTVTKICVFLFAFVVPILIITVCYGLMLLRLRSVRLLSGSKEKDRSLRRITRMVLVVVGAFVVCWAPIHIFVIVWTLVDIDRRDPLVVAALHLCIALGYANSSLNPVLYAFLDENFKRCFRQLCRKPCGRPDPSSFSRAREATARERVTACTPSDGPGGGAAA

Compound: NC(=O)[C@@H]1CCCN1C(=O)[C@H]1CC(=O)NCCCC[C@@H](NC(=O)[C@@H](N)Cc2ccc(O)cc2)C(=O)NCC(=O)N[C@@H](Cc2ccc(F)cc2)C(=O)N1
- Emax (Mu-type opioid receptor): 95.3%
- Emax [1]: 89.3%
- Emax [2]: 110%
- Activity (Mus musculus [3]): inactive
- Activity (Mus musculus [4]): inactive
- Activity (Mus musculus [5]): Active
- Activity (Mus musculus [6]): inactive
- Activity (Mus musculus [7]): Active
- Activity (Mus musculus [8]): Active
- Activity (Mus musculus [9]): Active
- Activity (Mus musculus [10]): Active
- Activity (Mus musculus [11]): inactive
- Activity (Mus musculus [12]): inactive

Compound: NC(=O)[C@@H]1CCCN1C(=O)[C@H]1CC(=O)NCCCC[C@@H](NC(=O)[C@@H](N)Cc2ccc(O)cc2)C(=O)NCC(=O)N[C@@H](Cc2ccc3ccccc3c2)C(=O)N1
- Activity [13]: inactive
- Emax (Mu-type opioid receptor): 98.6%
- Emax [2]: 110%
- Activity (Mus musculus [14]): inactive
- Activity (Mus musculus [15]): Active
- Activity (Mus musculus [16]): Active
- Activity (Mus musculus [17]): inactive
- Activity (Mus musculus [18]): Active

Compound: CN1C(=O)CNC(=O)[C@H](NC(=O)[C@@H](N)Cc2ccc(O)cc2)CCCCNC(=O)C[C@@H](C(=O)N2CCC[C@@H]2C(N)=O)NC(=O)[C@@H]1Cc1ccccc1
- MPE (Mus musculus [19]): 81.9%
- MPE (Mus musculus [20]): 93.8%
- MPE (Mus musculus [21]): 93.9%
- MPE (Mus musculus [22]): 75.3%
- ED50 (Mus musculus [23]): 0.0006 µmol/kg
- ED50 (Mus musculus [24]): 0.0003 µmol/kg
- ED50 (Mus musculus [25]): 0.0025 µmol/kg
- ED50 (Mus musculus [26]): 0.0326 µmol/kg

Compound: CC1(C)NC(=O)[C@H](NC(=O)[C@@H](N)Cc2ccc(O)cc2)CCCCNC(=O)C[C@H](C(=O)N2CCC[C@H]2C(N)=O)NC(=O)[C@H](Cc2ccccc2)NC1=O
- Emax (Mu-type opioid receptor): 100%
- Emax [1]: 89.2%
- Emax [2]: 103%
- Activity (Mus musculus [27]): inactive
- Activity (Mus musculus [28]): inactive
- Activity (Mus musculus [29]): Active
- Activity (Mus musculus [30]): inactive
- Activity (Mus musculus [31]): Active
